33 compounds from patent publication US8889676B2, “3-ureidoisoquinolin-8-yl derivatives” (Actelion Pharmaceuticals Ltd., priority 2011, dated 2014) can be followed below.

≈ marks a conversion by molar mass, not a printed value.

For one assay, the system named is S. pneumoniae ATCC 49619. Description: Minimal inhibitory concentration (MIC) by broth microdilution (CLSI M7-A7). Conditions: Streptococcus pneumoniae, ATCC49619; cation-adjusted Mueller Hinton Broth supplemented with 3% (v/v) lysed horse blood; microdilution method. It is filed as cell-based, Streptococcus pneumoniae. The method, boiled down:
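Broth microdilution per CLSI M7-A7 in cation-adjusted Mueller-Hinton broth with 3% (v/v) lysed horse blood for S. pneumoniae. MIC in mg/l.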
(In general: In broth dilution the organism is exposed to a series of concentrations in liquid medium.)
`CCNC(=O)Nc1cc2c(-c3ccncc3)ccc(CNC(=O)OCCCN3CCOCC3)c2cn1` [Example 110, [3-(3-ethyl-ureido)-5-pyridin-4-yl-isoquinolin-8-ylmethyl]-carbamic acid 3-morpholin-4-yl-propyl ester]: inhibition of growth (MIC) required 2 µg/mL (≈ 4.06 µM).

As for `CCNC(=O)Nc1cc2c(Cl)ccc(CNC(=O)OCCOC)c2cn1` [Example 111, [5-chloro-3-(3-ethyl-ureido)-isoquinolin-8-ylmethyl]-carbamic acid 2-methoxy-ethyl ester], the minimum inhibitory concentration (MIC) is 0.5 µg/mL (≈ 1.31 µM).

Regarding `C#CCOC(=O)NCc1ccc(Cl)c2cc(NC(=O)NCC)ncc12` [Example 112, [5-chloro-3-(3-ethyl-ureido)-isoquinolin-8-ylmethyl]-carbamic acid prop-2-ynyl ester], the minimum inhibitory concentration (MIC) came to 0.5 µg/mL (≈ 1.39 µM).

Consider `CCNC(=O)Nc1cc2c(Cl)ccc(CNC(=O)OC(C)(C)C)c2cn1` [Example 113, [5-chloro-3-(3-ethyl-ureido)-isoquinolin-8-ylmethyl]-carbamic acid tert-butyl ester], for which 1 µg/mL (≈ 2.64 µM) was the least that counted as inhibitory (MIC). This MIC lies about 2-fold higher than the previous one.

The compound `CCNC(=O)Nc1cc2c(-c3ccncc3)ccc(CNC(=O)OCCOC)c2cn1` [Example 114, [3-(3-ethyl-ureido)-5-pyridin-4-yl-isoquinolin-8-ylmethyl]-carbamic acid 2-methoxy-ethyl ester] came in with an MIC of 0.5 µg/mL (≈ 1.18 µM). Compared with the last compound, the MIC is about 2-fold lower.

Regarding `CCNC(=O)Nc1cc2c(-c3ccnc(N)c3)ccc(CNC(=O)OCCOC)c2cn1` [Example 115, [5-(2-amino-pyridin-4-yl)-3-(3-ethyl-ureido)-isoquinolin-8-ylmethyl]-carbamic acid 2-methoxy-ethyl ester], the MIC worked out at 2 µg/mL (≈ 4.56 µM).

As to `CCNC(=O)Nc1cc2c(-c3cc(C)nc(C)c3)ccc(CNC(=O)OCCOC)c2cn1` [Example 116, [5-(2,6-dimethyl-pyridin-4-yl)-3-(3-ethyl-ureido)-isoquinolin-8-ylmethyl]-carbamic acid 2-methoxy-ethyl ester], the minimal inhibitory concentration (MIC) was 1 µg/mL (≈ 2.21 µM).

`CCNC(=O)Nc1cc2c(-c3ccnc(OC)c3)ccc(CNC(=O)OCCOC)c2cn1` [Example 117, [3-(3-ethyl-ureido)-5-(2-methoxy-pyridin-4-yl)-isoquinolin-8-ylmethyl]-carbamic acid 2-methoxy-ethyl ester] returned an MIC of 1 µg/mL (≈ 2.21 µM).

As for `CCNC(=O)Nc1cc2c(-c3ccnc(F)c3)ccc(CNC(=O)OCCOC)c2cn1` [Example 118, [3-(3-ethyl-ureido)-5-(2-fluoro-pyridin-4-yl)-isoquinolin-8-ylmethyl]-carbamic acid 2-methoxy-ethyl ester], the minimal inhibitory concentration (MIC) was determined as 0.5 µg/mL (≈ 1.13 µM).

`CCNC(=O)Nc1cc2c(-c3ccnc(C)c3)ccc(CNC(=O)OCCOC)c2cn1` [Example 119, [3-(3-ethyl-ureido)-5-(2-methyl-pyridin-4-yl)-isoquinolin-8-ylmethyl]-carbamic acid 2-methoxy-ethyl ester] showed an MIC of 0.5 µg/mL (≈ 1.14 µM).

`CCNC(=O)Nc1cc2c(-c3ccnc(C#N)c3)ccc(CNC(=O)OCCOC)c2cn1` [Example 120, [5-(2-cyano-pyridin-4-yl)-3-(3-ethyl-ureido)-isoquinolin-8-ylmethyl]-carbamic acid 2-methoxy-ethyl ester]: inhibition of growth (MIC) required 1 µg/mL (≈ 2.23 µM).

For the compound `CCNC(=O)Nc1cc2c(-c3ccncc3C)ccc(CNC(=O)OCCOC)c2cn1` [Example 121, [3-(3-ethyl-ureido)-5-(3-methyl-pyridin-4-yl)-isoquinolin-8-ylmethyl]-carbamic acid 2-methoxy-ethyl ester], the MIC worked out at 1 µg/mL (≈ 2.29 µM).

Take `CCNC(=O)Nc1cc2c(-c3ccnc(CO)c3)ccc(CNC(=O)OCCOC)c2cn1` [Example 122, [3-(3-ethyl-ureido)-5-(2-hydroxymethyl-pyridin-4-yl)-isoquinolin-8-ylmethyl]-carbamic acid 2-methoxy-ethyl ester]: the MIC is 4 µg/mL (≈ 8.82 µM).

For `CCNC(=O)Nc1cc2c(-c3ccnnc3)ccc(CNC(=O)OC(C)(C)C)c2cn1` [Example 124, [3-(3-ethyl-ureido)-5-pyridazin-4-yl-isoquinolin-8-ylmethyl]-carbamic acid tert-butyl ester], the MIC is 0.5 µg/mL (≈ 1.18 µM).

`C#CCOC(=O)NCc1ccc(-c2cccnc2)c2cc(NC(=O)NCC)ncc12.Cl` [Example 125, [3-(3-ethyl-ureido)-5-pyridin-3-yl-isoquinolin-8-ylmethyl]-carbamic acid prop-2-ynyl ester hydrochloride] gave a minimum inhibitory concentration (MIC) of 1 µg/mL. This MIC lies about 2-fold higher than the previous one.

For `C#CCOC(=O)NCc1ccc(-c2ccncc2C)c2cc(NC(=O)NCC)ncc12` [Example 126, [3-(3-ethyl-ureido)-5-(3-methyl-pyridin-4-yl)-isoquinolin-8-ylmethyl]-carbamic acid prop-2-ynyl ester], the MIC amounted to 1 µg/mL (≈ 2.4 µM).

`C#CCOC(=O)NCc1ccc(-c2ccnnc2)c2cc(NC(=O)NCC)ncc12` [Example 127, [3-(3-ethyl-ureido)-5-pyridazin-4-yl-isoquinolin-8-ylmethyl]-carbamic acid prop-2-ynyl ester] displayed an MIC of 8 µg/mL (≈ 19.8 µM).

Compound `C#CCOC(=O)NCc1ccc(-c2ccnc(C#N)c2)c2cc(NC(=O)NCC)ncc12` [Example 128, [5-(2-cyano-pyridin-4-yl)-3-(3-ethyl-ureido)-isoquinolin-8-ylmethyl]-carbamic acid prop-2-ynyl ester] gave a minimum inhibitory concentration (MIC) of 1 µg/mL (≈ 2.33 µM).

Turning to `C#CC(=O)NCc1ccc(-c2ccnnc2)c2cc(NC(=O)NCC)ncc12` [Example 129, propynoic acid [3-(3-ethyl-ureido)-5-pyridazin-4-yl-isoquinolin-8-ylmethyl]-amide], the minimum inhibitory concentration (MIC) was found to be 0.5 µg/mL (≈ 1.34 µM). This MIC lies about 2-fold lower than the previous one.

For `CCNC(=O)Nc1cc2c(-c3ccncc3)ccc(CNC(=O)CCC3CC3)c2cn1` [Example 130, 3-cyclopropyl-N-[3-(3-ethyl-ureido)-5-pyridin-4-yl-isoquinolin-8-ylmethyl]-propionamide], the MIC was 0.5 µg/mL (≈ 1.2 µM).

In turn, `C#CCOC(=O)NCc1ccc(-c2ccc(N)nc2)c2cc(NC(=O)NCC)ncc12.Cl` [Example 131, [5-(6-amino-pyridin-3-yl)-3-(3-ethyl-ureido)-isoquinolin-8-ylmethyl]-carbamic acid prop-2-ynyl ester hydrochloride] displayed an MIC of 0.5 µg/mL.

Consider `C#CCOC(=O)NCc1ccc(-c2cccc(CNC(C)=O)c2)c2cc(NC(=O)NCC)ncc12.Cl` [Example 132, {5-[3-(acetylamino-methyl)-phenyl]-3-(3-ethyl-ureido)-isoquinolin-8-ylmethyl}-carbamic acid prop-2-ynyl ester hydrochloride], for which the MIC is 4 µg/mL.

`C#CCOC(=O)NCc1ccc(-c2cccc(O)c2)c2cc(NC(=O)NCC)ncc12.Cl` [Example 133, [3-(3-ethyl-ureido)-5-(3-hydroxy-phenyl)-isoquinolin-8-ylmethyl]-carbamic acid prop-2-ynyl ester hydrochloride]: inhibition of growth (MIC) required 0.5 µg/mL.

Take `C#CCOC(=O)NCc1ccc(-c2cccc(CC(=O)O)c2)c2cc(NC(=O)NCC)ncc12.Cl` [Example 135, {3-[3-(3-ethyl-ureido)-8-(prop-2-ynyloxycarbonylamino-methyl)-isoquinolin-5-yl]-phenyl}-acetic acid hydrochloride]: 4 µg/mL was the least that counted as inhibitory (MIC). Against the preceding compound, the MIC is about 8-fold higher.

The compound `C#CCOC(=O)NCc1ccc(-c2cccc(C(N)=O)c2)c2cc(NC(=O)NCC)ncc12.Cl` [Example 136, [5-(3-carbamoyl-phenyl)-3-(3-ethyl-ureido)-isoquinolin-8-ylmethyl]-carbamic acid prop-2-ynyl ester hydrochloride] came in with an MIC of 2 µg/mL.

As for `C#CCOC(=O)NCc1ccc(-c2ccc(C(=O)O)cc2)c2cc(NC(=O)NCC)ncc12.Cl` [Example 137, 4-[3-(3-ethyl-ureido)-8-(prop-2-ynyloxycarbonylamino-methyl)-isoquinolin-5-yl]-benzoic acid hydrochloride], the MIC is 0.25 µg/mL.

`C#CCOC(=O)NCc1ccc(-c2ccc(O)cc2)c2cc(NC(=O)NCC)ncc12.Cl` [Example 138, [3-(3-ethyl-ureido)-5-(4-hydroxy-phenyl)-isoquinolin-8-ylmethyl]-carbamic acid prop-2-ynyl ester hydrochloride] returned an MIC of 0.5 µg/mL.

In turn, `C#CCOC(=O)NCc1ccc(-c2ccccc2O)c2cc(NC(=O)NCC)ncc12.Cl` [Example 139, [3-(3-ethyl-ureido)-5-(2-hydroxy-phenyl)-isoquinolin-8-ylmethyl]-carbamic acid prop-2-ynyl ester hydrochloride] returned an MIC of 1 µg/mL.

For `C#CCOC(=O)NCc1ccc(-c2cncnc2)c2cc(NC(=O)NCC)ncc12.Cl` [Example 140, [3-(3-ethyl-ureido)-5-pyrimidin-5-yl-isoquinolin-8-ylmethyl]-carbamic acid prop-2-ynyl ester hydrochloride], 1 µg/mL was the least that counted as inhibitory (MIC).

In the case of `C#CCOC(=O)NCc1ccc(-c2ccc(C(N)=O)cc2)c2cc(NC(=O)NCC)ncc12.Cl` [Example 141, [5-(4-carbamoyl-phenyl)-3-(3-ethyl-ureido)-isoquinolin-8-ylmethyl]-carbamic acid prop-2-ynyl ester hydrochloride], the minimum inhibitory concentration (MIC) was 0.25 µg/mL.

Turning to `C#CCOC(=O)NCc1ccc(-c2ccc(CO)nc2)c2cc(NC(=O)NCC)ncc12.Cl` [Example 142, [3-(3-ethyl-ureido)-5-(6-hydroxymethyl-pyridin-3-yl)-isoquinolin-8-ylmethyl]-carbamic acid prop-2-ynyl ester hydrochloride], 1 µg/mL was the least that counted as inhibitory (MIC). Compared with the last compound, the MIC is about 4-fold higher.

With `C#CCOC(=O)NCc1ccc(-c2ccc(CO)cc2)c2cc(NC(=O)NCC)ncc12.Cl` [Example 143, [3-(3-ethyl-ureido)-5-(4-hydroxymethyl-phenyl)-isoquinolin-8-ylmethyl]-carbamic acid prop-2-ynyl ester hydrochloride], the MIC amounted to 0.5 µg/mL.

Staying with this assay, now noted: cation-adjusted Mueller Hinton Broth supplemented with 3% (v/v) lysed horse blood; microdilution method.
Regarding `CCNC(=O)Nc1cc2c(-c3ccnc(CN4CCOCC4)c3)ccc(CNC(=O)OCCOC)c2cn1` [Example 123, {3-(3-ethyl-ureido)-5-[(2-morpholin-4-ylmethyl)-pyridin-4-yl]-isoquinolin-8-ylmethyl}-carbamic acid 2-methoxy-ethyl ester], the “MIC for S. pneumoniae ATCC 49619” value was 8 µg/mL.

As a reminder, the MIC is the lowest concentration that inhibits growth of the organism.
